Measured values published in article PMC11988034, “Exposure–Response Relationships for Toceranib in Dogs with Solid Tumors: A Pilot Study” (Animals : an Open Access Journal from MDPI, 2025).
Where two headings read alike, the source gives them in different places.

Legend:
[1] = cited from earlier work
[2] = test system: canine solid tumors; parameters: method as in PMID 12855656, PMID 22236194, PMID 34981886; conditions: various types of canine solid tumors; cited from earlier work
[3] = Plasma toceranib concentration (LC–MS/MS) in dogs with solid tumors treated with TOC; assay type: in vivo; conditions: for concentration at 48 h / Cmax: plasma; for concentration at 48 h: oral; for Cmax: po
Description: A prospective, randomized clinical trial was conducted on client-owned dogs diagnosed with malignant solid tumors between May 2022 and October 2023 at the Konkuk University Animal Cancer Center. TOC ([…], NJ, USA) was administered orally at a dose range of 2.4-2.9 mg/kg every other day with or without food. Medical data for the dogs were collected, including signalment (age, sex, and neuter status); physical examination, blood pressure, hematology, biochemistry, urinalysis, diagnostic imaging (radiography, ultrasound, and computed tomography), and histopathological findings (surgical margin and mitotic count); TOC dose and duration of TOC treatment; and AEs and clinical outcomes. Dogs were excluded from this study if distant metastases were confirmed at the time of diagnosis or if the TOC treatment duration was less than 1 month, which is insufficient for evaluating its effect. This clinical trial was approved by the Institutional Animal Care and Use Committee of the Konkuk University (approval no. KU 23046). Whole blood (1-2 mL) was obtained from the external jugular vein after initiation of postoperative TOC treatment. Blood samples were collected in ethylenediaminetetraacetic acid tubes 6 h (Cmax) and 48 h (Cmin) after administration; these time points were determined based on previous studies. Within 30 min of collection, the samples were centrifuged at 3000× g for 10 min at 4 °C. The plasma was separated, divided into cryovials, and stored at -80 °C until analysis. […] Plasma toceranib was quantitated via high-performance liquid chromatography with tandem mass spectrometry detection (LC-MS/MS). […] After thorough vortexing for 1 min, the mixture was centrifuged at 15,000× g for 10 min at 4 °C, and 2 μL of the supernatant was collected and injected into the LC-MS/MS system. The LC-MS/MS system comprised an ExionLCTM AD system (Sciex, Toronto, ON, Canada) coupled with a Triple QuadTM 5500+ mass system (Sciex). Data were acquired using Analyst 1.4.3. Chromatographic separation was performed using an XBridge C18 column (100 × 2.1 mm, 5 μm; Waters Corporation, Milford, MA, USA) maintained at 40 °C. An isocratic mobile phase comprising 0.1% formic acid in water and 0.1% formic acid in acetonitrile (30:70, v/v) was used at a flow rate 0.50 mL/min, with the total run time not exceeding 3 min. The autosampler was maintained at 15 °C. All measurements were conducted using a mass spectrometer operated in the positive electrospray ionization mode. The multiple reaction monitoring transitions were m/z 397.2 → 283.0 for toceranib and m/z 405.2 → 283.1 for the toceranib-d8 internal standard (IS). The other parameters were as follows: collision gas, curtain gas, ion source gas 1, and ion source gas 2 at 7, 35, 50, and 70 psi, respectively; dwell time, 200 ms; ion spray voltage and temperature, 4000 V and 600 °C, respectively; declustering potential, 80 V for toceranib and the IS; collision energy, 40 V for toceranib and the IS; entrance potential (EP), 12 V for toceranib and 8 V for IS; and collision exit potential, 16 V for toceranib and 18 V for the IS. Standard curves were generated using the peak area ratios of toceranib to the IS and 1/x^2 weighted linear regression. Toceranib concentrations were determined via interpolation across a range of 5-500 ng/mL. Continuous variables are expressed as the mean ± standard deviation. Interpatient variability is expressed as the coefficient of variation, calculated as standard deviation divided by the mean and expressed as a percentage. Normality was assessed using the Shapiro-Wilk test. Continuous variables were compared using Student's t-test or Mann-Whitney U test. Linear mixed models for repeated measures were used to compare plasma TOC concentrations over time. Data were analyzed using SPSS v26.0 (IBM Corp., Armonk, NY, USA). Differences were considered significant at p < 0.05.

[4] = parameters: method as in PMID 24079884; conditions: cited from earlier work
[5] = cited from earlier work; remark: listed apart in the source
[6] = parameters: method as in PMID 12855656; conditions: preclinical trials in rodent models; cited from earlier work
[7] = Assessment of adverse events (VCOG-CTCAE v2.0) in dogs treated with TOC; assay type: in vivo
Description: AEs were evaluated before TOC treatment (at baseline) and 1, 2, and 4 weeks thereafter, followed by regular check-ups every 1–2 months. At each follow-up, a physical examination, blood pressure measurement, hematological and biochemical tests, and urinalysis were performed. AEs were graded according to the Veterinary Cooperative Oncology Group Common Terminology Criteria for AEs (v2.0). Concomitant medications, including famotidine, omeprazole, silymarin, ursodeoxycholic acid, mirtazapine, and tramadol, were allowed to prevent or treat drug-related AEs. TOC was permanently discontinued upon request of the owner or if unacceptable AEs occurred or disease progression was identified.

[8] = test system: malignant solid tumors; experiment: Assessment of clinical outcome (tumor recurrence) in dogs with solid tumors on postoperative TOC; assay type: in vivo
Description: A prospective, randomized clinical trial was conducted on client-owned dogs diagnosed with malignant solid tumors between May 2022 and October 2023 at the Konkuk University Animal Cancer Center. TOC (Palladia®, Zoetis, Parsippany, NJ, USA) was administered orally at a dose range of 2.4–2.9 mg/kg every other day with or without food. Medical data for the dogs were collected, including signalment (age, sex, and neuter status); physical examination, blood pressure, hematology, biochemistry, urinalysis, diagnostic imaging (radiography, ultrasound, and computed tomography), and histopathological findings (surgical margin and mitotic count); TOC dose and duration of TOC treatment; and AEs and clinical outcomes. Dogs were excluded from this study if distant metastases were confirmed at the time of diagnosis or if the TOC treatment duration was less than 1 month, which is insufficient for evaluating its effect. This clinical trial was approved by the Institutional Animal Care and Use Committee of the Konkuk University (approval no. KU 23046).
Rechecks were performed every 1–2 months after the initiation of TOC treatment through physical examination, three-view thoracic radiography, and abdominal ultrasonography.

[9] = parameters: method as in PMID 34512023, PMID 31782166; conditions: patients with metastatic renal cell tumors; cited from earlier work

Cc1[nH]c(/C=C2\C(=O)Nc3ccc(F)cc32)c(C)c1C(=O)NCCN1CCCC1 [TOC, Toceranib phosphate]
biological activity (dogs responding) ([1]; 11/16 dogs treated with 2.5 mg/kg TOC every other day): 69% | biological activity (dogs responding) ([1]; 12/20 dogs treated with TOC at the MTD): 60% | maximum tolerated dose (MTD) ([1]; every other day, dogs): 3.25 mg/kg | clinical benefit [2]: 50–90% | mean interpatient variability in dose-normalized Cmax (coefficient of variation) ([3]; dog, in vivo): 29% | mean interpatient variability in dose-normalized Cmin (coefficient of variation) ([3]; dog, in vivo, 48 h): 61% | concentration at 48 h ([3]; dog, dogs with AEs, read-out: mean Cmin): 13.5 ± 12.1 ng/mL | concentration at 48 h ([3]; dog, dogs without AEs, read-out: mean Cmin): 14.9 ± 11.3 ng/mL | concentration at 48 h ([3]; dog, four dogs, mean ± SD, read-out: overall mean Cmin): 14.2 ± 9.57 ng/mL | Cmax ([3]; dog, dogs with AEs, read-out: mean Cmax at week 1): 89.3 ± 26.3 ng/mL | Cmax ([3]; dog, dogs with AEs, read-out: mean Cmax on average): 86.2 ± 28.6 ng/mL | Cmax ([3]; dog, dogs with tumor recurrence, read-out: mean Cmax at week 1): 74.6 ± 49.9 ng/mL | Cmax ([3]; dog, dogs with tumor recurrence, read-out: mean Cmax on average): 82.7 ± 42.6 ng/mL | Cmax ([3]; dog, dogs without AEs, read-out: mean Cmax at week 1): 59.9 ± 20.2 ng/mL | Cmax ([3]; dog, dogs without AEs, read-out: mean Cmax on average): 64.1 ± 8.58 ng/mL | Cmax ([3]; dog, dogs without tumor recurrence, read-out: mean Cmax at week 1): 77 ± 13.7 ng/mL | Cmax ([3]; dog, dogs without tumor recurrence, read-out: mean Cmax on average): 73.2 ± 12.3 ng/mL | Cmax ([3]; dog, individual dogs (case no. in c0), plasma 6 h after oral administration, week 12, read-out: Cmax Week 12): 47.4 ng/mL | Cmax ([3]; dog, nine dogs, average of weeks, mean ± SD, read-out: overall mean Cmax on average): 76.4 ± 22.5 ng/mL | Cmax ([3]; dog, nine dogs, mean ± SD, read-out: overall mean Cmax at week 1): 76.2 ± 27.2 ng/mL | time to steady-state plasma concentration ([3]; dogs, oral dosing every other day): ≤ 1 week | resulting Cmax ([4]; TOC administered within 2.4 to 2.9 mg/kg): > 40 ng/mL | dogs in which Cmax was reached at 6 or 8 h post-administration [4]: 69% | plasma concentration at 6 or 8 h as share of actual Cmax in the remaining dogs [4]: > 75% | Cmax level associated with clinical efficacy ([5]; dogs with mast cell tumors receiving TOC at the MTD): at least 40 ng/mL | elimination half-life ([5]; in dogs): approximately 17 h | interpatient coefficient of variation for Cmax ([5]; previous PK study): 35–40% | interpatient coefficient of variation for Cmin ([5]; previous PK study): 30–61% | therapeutic range (plasma concentration) [6]: 50 to 100 ng/mL | dogs that experienced AEs ([7]; five of the nine dogs in which Cmax was measured): 55.6% | dogs that experienced AEs ([7]; five out of ten dogs, follow-up period): 50% | dogs that experienced AEs ([7]; two of the four dogs in which Cmin was measured): 50% | dogs that developed tumor recurrence ([8]; three of the nine dogs with Cmax measured): 33.3% | dogs that developed local recurrence ([8]; three out of ten dogs, follow-up period): 30%

CCN(CC)CCNC(=O)c1c(C)[nH]c(/C=C2\C(=O)Nc3ccc(F)cc32)c1C [sunitinib]
interpatient PK variability [9]: 34–60%
